Measurements: ChEMBL document CHEMBL4339213, “Microwave-assisted synthesis and in vitro stability of N-benzylamide non-steroidal anti-inflammatory drug conjugates for CNS delivery” (Bioorg Med Chem Lett, 2019)

Columns and labels:
[1] = Half life in pH 7.4 PBS at 125 uM incubated at 37 degC by HPLC analysis; assay type: physicochemical
[2] = Drug metabolism in human plasma assessed as release of the NSAID by LC-MS analysis; assay type: ADME, cell-free
[3] = Half life in human plasma at 125 uM by HPLC analysis; assay type: ADME, cell-free
[4] = Half life in human plasma at 100 uM by HPLC analysis; assay type: ADME, cell-free
[5] = Half life in human plasma; assay type: ADME, cell-free

Row | half-life at 125 µM [1] [h] | Drug metabolism [2] | half-life at 125 µM [3] [min] | half-life at 100 µM [4] [h] | half-life [5] [h] | SMILES
1 | > 48 | Metabolite_Detected |  |  |  | CC(C)Cc1ccc(C(C)C(=O)OCCC(=O)NCc2ccccc2)cc1 (stereo not given)
2 | > 48 | Metabolite_Detected | 4.7 |  |  | COc1ccc2cc([C@H](C)C(=O)OCCC(=O)NCc3ccccc3)ccc2c1
3 | > 48 | Metabolite_Detected |  | 1.83 |  | CC(C(=O)OCCC(=O)NCc1ccccc1)c1ccc(-c2ccccc2)c(F)c1 (stereo not given)
4 |  | Metabolite_Detected |  |  | > 3.6 | COc1ccc2c(c1)c(CC(=O)OCCC(=O)NCc1ccccc1)c(C)n2C(=O)c1ccc(Cl)cc1
